The values that follow come from patent US5677282A (Proscript, Inc., priority 1995, dated 1997).

Common to all, as to assay type: biochemical
The target of one assay is 92 kD gelatinase (Homo sapiens, UniProt P14780). As to the kind of experiment: Assay of 92 KD gelatinase inhibition activity. Particulars: 92KD gelatinase 25 pM, H-150 buffer pH 7.4; read-out: Ki(app). Put shortly: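 Pro-92 kD gelatinase activated with 1 mM p-aminophenyl mercuric acetate, 24 h at 37 °C. Assay: 25 pM enzyme in H-150 buffer pH 7.4 with coumarin peptide substrate; hydrolysis rate followed by fluorescence over 100-200 s. Inhibitor titrated in until 30-70% inhibition; Ki calculated assuming simple competitive inhibition with substrate well below Km.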

The target in the next assay is T1, 72 kD gelatinase (Homo sapiens, UniProt P08253).
T1 sequence (P08253 110-660): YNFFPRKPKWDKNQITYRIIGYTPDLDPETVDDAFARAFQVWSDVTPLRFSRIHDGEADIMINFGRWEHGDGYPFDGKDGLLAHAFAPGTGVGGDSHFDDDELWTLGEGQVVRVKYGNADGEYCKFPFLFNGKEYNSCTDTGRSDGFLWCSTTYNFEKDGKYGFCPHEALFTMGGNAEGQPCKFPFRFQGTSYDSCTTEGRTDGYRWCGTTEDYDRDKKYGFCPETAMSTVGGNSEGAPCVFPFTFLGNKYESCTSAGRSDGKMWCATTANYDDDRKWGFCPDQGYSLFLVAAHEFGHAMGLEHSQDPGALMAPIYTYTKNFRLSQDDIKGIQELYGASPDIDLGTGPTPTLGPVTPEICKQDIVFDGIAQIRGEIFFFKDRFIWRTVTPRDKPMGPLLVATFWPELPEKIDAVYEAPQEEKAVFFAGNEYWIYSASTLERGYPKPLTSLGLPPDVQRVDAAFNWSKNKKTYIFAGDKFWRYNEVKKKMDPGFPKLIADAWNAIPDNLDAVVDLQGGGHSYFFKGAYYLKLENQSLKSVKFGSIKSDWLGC
As to the kind of experiment: Assay of 72 KD gelatinase inhibition activity. The following applies: 72KD gelatinase 180 pM, H-150 buffer pH 7.4; read-out: Ki(app). Here is the method: H-150 buffer, pH 7.4, was prepared by CaCl2 H2O (1.47 grams), NaCl (8.77 grams) and N-[2 -hydroxyethyl]piperazine-N'-[2-ethanesulfonic acid](23.83 grams) to distilled and deionized water and then bring the final volume of the solution to 1 liter. An reaction mixture having a final volume of 250 μL was prepared with H-150 buffer, 40 μgrams of Pro-72KD gelatinase (Strongin, et al., J. Biol. Chem. 268:14033 (1993); Goldberg, et al., J. Biol. Chem., 267:4583 (1992); Kleiner, et al., Biochemistry 32:1583 (1993)) and p-aminophenyl mercuric acetate (Sigma Chemical Co., St. Louis, Mo.) (1 mM). The reaction mixture was then incubated for 3 hours at 25° C.
The reaction mixture was applied to a NAP-5 column (G-25 SEPHADEX™, Pharmacia). Fractions containing […] were identified using 12% SDS polyacrylamide gel electrphoresis and concentrated to about 100-200 μliters by centrifigation (5000 g, 15 minutes).
A solution containing H-150 buffer (2.0 mL), 72KD gelatinase (180 pM) and ethylphenolpoly(ethylene-glycolether)n (Boerhringer Mannheim) (1.3 μM) was prepared in a stirred cuvette. Coumarin peptide substrate (2 μL of a 1 mM solution in dimethyl sulfoxide) was added to the reaction mixture. The rate of hydrolysis was determined for about 100-200 seconds by measuring the fluorescence of the reaction at ex328 nanometers and […] using a Hitachi F-2000 Fluorescence Spectrophotometer.
2 μL of a 10 mM inhibitor stock solution (in dimethyl sulfoxide) is added and the reduction in the rate of hydrolysis is determined. Additional 2 μL aliquots of the stock inhibitor solution is added until a 30% to 70% inhibition is observed. Ki is calculated on the assumption of simple competitive inhibition and that the substrate concentration is much less than Km.

The target in assay [1] is human neutrophil collagenase (Homo sapiens, UniProt P22894). As to the kind of experiment: Assay of human neutrophil collagenase inhibition activity. Particulars: human neutrophil collagenase 2 nM, H-150 buffer pH 7.4; read-out: Ki(app). The method, boiled down: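 Human neutrophil collagenase (2 nM) in HEPES/NaCl/CaCl2 buffer, pH 7.4, was followed by fluorescence of coumarin peptide substrate hydrolysis over about 100-200 s. Inhibitor was added stepwise until 30-70% rate reduction. Ki was calculated assuming simple competitive inhibition with substrate far below Km.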

“And” between values parts separate entries of the source, which are not always exact repeats. Equal entries are not always repeated.

human neutrophil collagenase, sequence (P22894 101-467): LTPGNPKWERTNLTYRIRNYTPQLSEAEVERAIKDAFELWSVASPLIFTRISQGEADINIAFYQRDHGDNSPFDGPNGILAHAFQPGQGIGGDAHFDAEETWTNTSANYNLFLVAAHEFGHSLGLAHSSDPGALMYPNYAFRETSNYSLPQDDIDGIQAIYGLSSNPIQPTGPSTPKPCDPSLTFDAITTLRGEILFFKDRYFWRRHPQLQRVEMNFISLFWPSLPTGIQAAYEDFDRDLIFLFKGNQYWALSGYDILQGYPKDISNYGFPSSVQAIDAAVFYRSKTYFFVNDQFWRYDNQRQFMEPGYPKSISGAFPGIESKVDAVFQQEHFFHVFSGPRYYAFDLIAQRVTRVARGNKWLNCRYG
92 kD gelatinase, sequence (P14780 107-707): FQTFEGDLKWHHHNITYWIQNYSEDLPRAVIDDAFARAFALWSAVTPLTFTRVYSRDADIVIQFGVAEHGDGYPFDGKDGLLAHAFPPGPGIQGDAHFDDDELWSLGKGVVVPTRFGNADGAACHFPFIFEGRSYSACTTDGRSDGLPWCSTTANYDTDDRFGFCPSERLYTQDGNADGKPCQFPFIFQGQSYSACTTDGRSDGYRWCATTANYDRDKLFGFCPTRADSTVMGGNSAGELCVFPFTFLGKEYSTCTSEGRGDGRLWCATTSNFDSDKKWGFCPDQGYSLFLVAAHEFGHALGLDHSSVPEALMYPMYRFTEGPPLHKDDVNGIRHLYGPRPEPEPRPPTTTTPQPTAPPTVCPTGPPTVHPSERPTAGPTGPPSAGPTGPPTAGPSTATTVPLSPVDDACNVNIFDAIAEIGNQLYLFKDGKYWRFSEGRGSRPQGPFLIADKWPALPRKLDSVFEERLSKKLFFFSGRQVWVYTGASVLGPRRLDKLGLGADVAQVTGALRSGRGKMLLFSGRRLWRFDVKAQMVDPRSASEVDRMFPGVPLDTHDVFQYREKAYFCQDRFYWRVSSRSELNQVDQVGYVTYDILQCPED

Consider `CC(C)C[C@H](NC(=O)[C@H](Cc1ccccc1)NC(=O)OCc1ccccc1)C(=O)Nc1n[nH]c(=S)s1` [5-(N-benzyloxycarbonyl-phenylalanyl-leucylamino)-1,3,4-thiadiazole-2-thione], for which the Ki on 92 kD gelatinase came to 2.3 nM; at 72 kD gelatinase, 1.95 nM.

As for `O=C(N[C@@H](Cc1ccc(OCc2ccccc2)cc1)C(=O)N[C@H](C(=O)Nc1n[nH]c(=S)s1)c1ccccc1)OCc1ccccc1`, the Ki on 72 kD gelatinase was determined as 0.145 nM; in assay [1] it was 1.57 nM.

Take `CC(C)[C@H](NC(=O)[C@H](Cc1ccccc1)NC(=O)OCc1ccccc1)C(=O)Nc1n[nH]c(=S)s1` [5-(N-benzyloxycarbonyl-phenylalanyl-valylamino)-1,3,4-thiadiazole-2-thione]: the Ki on 92 kD gelatinase was 1.5 nM; on 72 kD gelatinase, 4.6 nM; in assay [1], 4.8 nM and 7.8 nM.
